Results on 4 compounds are retold here after patent US9375404B2 (Duchesnay Inc., priority 2012, dated 2016).

Structures are written as SMILES.

A short description of the data set: clinical. Particulars: human, in vivo.

Method: Data are from bioavailability studies in healthy volunteers. 5 mg: 12 healthy men, 20 mg: 42 healthy women, 25 mg: 12 healthy women, 40 mg: 18 healthy women;

Usually half-life stands for the time in which the quantity being followed falls by half. The low end stands for fast loss, the high end for slow loss. Consider `Cc1ncc(COP(=O)(O)O)c(C=O)c1O` [PLP, pyridoxal 5-phosphate], for which the “availability among pyridoxine metabolites” value is recorded as “most available active metabolite”, the “dose vs. Cmax relationship (linearity of pharmacokinetics)” value (“dose vs. Cmax relationship” for short) is “increase more than expected”, the half-life was found to be 60 h and the “persistence in the systemic circulation” value is reported as “remaining in the systemic circulation the longest”.

Where the note is “half-life”, `CN(C)CCOC(C)(c1ccccc1)c1ccccn1` (centres unmarked) [doxylamine, reference compound] gave a half-life of about 12 h.

Regarding `Cc1ncc(CO)c(C=O)c1O` [pyridoxal], the bioavailability at steady-state entry was “significant bioavailability increases”; the “change in Cmax and AUC” value is recorded as “significant increase”; the “change in T1/2” value is on record as “significant lengthening”; the “dose vs. Cmax relationship” value is “increase more than expected”.

`Cc1ncc(CO)c(CO)c1O` [pyridoxine, reference compound]: the “amount unchanged in blood” value was “about 1%”; the “availability with increasing dose” value is on record as “availability is not increased”; the “dose vs. Cmax relationship” value is on record as “Cmax increases less than expected”; the “inter subject and inter study variations” value is given as “significantly higher”. The metabolism result is on record as “rapidly metabolized”.
